According to the METLIN SMRT retention time set (Domingo-Almenara et al. 2019):

Test: gradient 5% acetonitrile 3 min, to 50% in 2 min, to 85% in 15 min, held 3 min, 100 µL/min
Details: column: Zorbax Extend-C18 2.1 x 50 mm; eluents: water / acetonitrile, 0.1% formic acid
Outline: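 Mixtures of ~100 pure standards were chromatographed on a Zorbax Extend-C18 column (2.1 × 50 mm, 1.8 μm) at 100 μL/min using water and acetonitrile, each with 0.1% formic acid. Detection used a quadrupole time-of-flight mass spectrometer in positive and negative ionization mode, and data collection spanned 3 months. Retention time was obtained from adduct peaks picked computationally and each checked manually.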

| SMILES | RP-LC retention time [s] |
| --- | --- |
| COc1ccc(NS(=O)(=O)c2cn(C)c3ncccc23)cc1 | 740 |
| Cc1oc(C2CCN(S(=O)(=O)CCc3ccccc3)CC2)nc1C(=O)N1CCCCC1 | 943 |
| CN1C(=O)COc2ccc(-c3csc(NC(=O)C4CC4)n3)cc21 | 778 |
| CC1(C(=O)NC2CCN(c3cc(N4CCOCC4)cnn3)C2)CCCCC1 (centres undefined) | 569 |
| CCn1ccc2c(cc(C(=O)Nc3cc(Cl)c(OC)cc3OC)n2C)c1=O | 810 |
| CSc1ccc(CNC(=O)CCNc2cnc3cnccn23)cc1 | 588 |
| O=C(c1ccnc(N2CCNC(c3ccccc3)C2)c1)N1CCCN(c2ncccn2)CC1 (centres undefined) | 596 |
| CCC(Sc1nc2cc(OC)c(OC)cc2c2nc(C)nn12)C(=O)NCc1ccco1 (centres undefined) | 746 |
| CC(C)NC(=O)Cc1cccn1-c1cccc(Cl)c1 | 870 |
| CCN1CCn2cc(S(=O)(=O)Nc3ccc(F)c(F)c3)cc2C1=O | 727 |
| CCCCNC(=O)C1CCCN1C(=O)c1ccc(NC(=O)C(C)(C)C)cc1 (centres undefined) | 693 |
| CC(=O)N1c2ccc(S(=O)(=O)N3CCOCC3)cc2CC1C(=O)N1CCN(c2ccccc2)CC1 (centres undefined) | 776 |
| C[C@@H]1CCN(C(=O)C(CCCN=C(N)N)NS(=O)(=O)c2cccc3c2NC[C@H](C)C3)C(C(=O)O)C1 (some centres undefined) | 767 |
| O=C([C@@H]1C[C@H](F)CN1S(=O)(=O)c1ccc(Br)s1)N1CCCCC1 | 839 |
| Nc1cc(C2CCN(C(=O)COc3ccccc3)CC2)no1 | 662 |
| CN1C(=O)C2(c3ccccc31)C(C(=O)Nc1ccc(Br)cc1F)CC1CCCN12 (centres undefined) | 674 |
| CC(C)(C)NC(=O)C(=O)NCC1CCN(C(=O)COc2ccccc2)CC1 | 747 |
| Cc1sc2nc(SCC(=O)Nc3sc4c(c3C#N)CCCC4)n(C)c(=O)c2c1C | 1080 |
| COc1ccc(NC(=O)Cn2cnc3nc4c(cc3c2=O)CCCC4)c(OC)c1 | 709 |

| SMILES | RP-LC retention time [s] |
| --- | --- |
| O=C(NCc1ccc2c(c1)OCO2)C(=O)NCC1CCCO1 (centres undefined) | 639 |
| Cc1[nH]c(=O)[nH]c(=O)c1CC(=O)NCCc1cccs1 | 574 |
| CCCCNc1nc(N)ncc1[N+](=O)[O-] | 790 |
| CCCNC(=O)C1CCCN(c2ccc(SCC(=O)Nc3cc(F)ccc3F)nn2)C1 (centres undefined) | 698 |
| O=C(c1cc(-c2cccs2)n(C2CCS(=O)(=O)C2)n1)N1CCN(c2ccccn2)CC1 (centres undefined) | 602 |
| COc1ccc(C2CC(=O)N(c3cccc(OC)c3)C(=O)C2)cc1 | 860 |
| CCCCS(=O)(=O)c1cc2c(cc1NC(=O)c1c(F)cccc1F)n(C)c(=O)n2C | 800 |
| CN(C)Cc1ccc(S(=O)(=O)n2ccc(/C=C/C(=O)NO)c2)cc1 | 936 |
| COCCNC(=O)C1CCCN1S(=O)(=O)c1cc2c(cc1Cl)NC(=O)CO2 (centres undefined) | 627 |
| O=C(NCc1cccc(C(F)(F)F)c1)C1CCN(c2cc(N3CCOCC3)ncn2)CC1 | 672 |
| Cc1nnc(NC(=O)Cn2cccn2)s1 | 562 |
| Cc1ccc(Nc2c(-c3ccc(Cl)cc3)nc3cc(C)ccn23)cc1 | 807 |
| CCc1nc2c(=O)n(CC(=O)N3CCCC(C)C3)nc(C)c2s1 (centres undefined) | 726 |
| COC(=O)c1cc(OCC(=O)Nc2ccc(F)cc2)c2cc(F)ccc2n1 | 836 |
| CCC(=O)N1CCN(c2nc3c(s2)CC(C(=O)NC(CC)CC)CC3)CC1 (centres undefined) | 546 |
| Cc1ccc(Cl)cc1NC(=O)N1CCCC(Cn2cnc3cccnc32)C1 (centres undefined) | 709 |
| Cc1ccc(S(=O)(=O)c2nc(S(C)(=O)=O)sc2NCc2ccccn2)cc1 | 763 |
| COc1ccc(NC(=O)C2CCN(c3cc(N4CCCC4)ncn3)CC2)cc1Cl | 677 |
| CC1=C(c2ccc(C(C)C)cc2)S(=O)(=O)N=C1N1CCC(NC(=O)C2CCOC2)CC1 (centres undefined) | 788 |

| SMILES | RP-LC retention time [s] |
| --- | --- |
| CCC(C(=O)NCCc1c[nH]c2ccc(Cl)cc12)n1c2ccccc2c2cnn(C)c(=O)c21 (centres undefined) | 986 |
| CCOCC(=O)N1CCCN(C2=NS(=O)(=O)C(c3ccc(Cl)cc3)=C2C)CC1 | 761 |
| O=C(Cn1ccc2c(SCc3ccc(F)cc3)nccc21)NCc1ccc2c(c1)OCO2 | 744 |
| O=S(=O)(c1cccnc1)N1CC(c2nc(-c3ccncc3)no2)C1 | 663 |
| O=C(Cc1csc(SCc2ccc(Br)cc2)n1)NCc1cccs1 | 978 |
| N#CCc1nc(-c2cc3ccccc3o2)cs1 | 860 |
| CCC(=O)N1CCC(N2CC(OCC3CC3)C23CCOCC3)CC1 (centres undefined) | 577 |
| COc1cccc(CCN2CC(=O)N(c3cccc(C)c3)[C@@H]3CS(=O)(=O)C[C@@H]32)c1 | 849 |
| Cc1c(F)cccc1NC(=O)NC1CCN(c2ccc(F)cc2)C1=O (centres undefined) | 866 |
| CCCS(=O)(=O)N1CCC2(CC1)CC(N1CCN(c3ccccc3)CC1)CCO2 (centres undefined) | 538 |
| COc1ccc(-c2nnc(SCC(=O)N3CCC(C)CC3)o2)cc1 | 914 |
| COC(=O)CNC(=O)Nc1ncc(-c2ccc(OC)cc2)n1C | 607 |
| O=C(NCCn1c(=O)n(Cc2ccc(F)cc2)c2cccnc21)C1CCCC1 | 782 |
| Cc1ccc(NC(=O)C2=C(Nc3ccc4c(c3)n(C)c(=O)n4C)c3ccccc3S2(=O)=O)cc1 | 902 |
| COc1cccc(CNC(=O)C2CCCN(c3nn4c(=O)c5c(nc4s3)CCCC5)C2)c1 (centres undefined) | 737 |
| CCC(C)NC(=O)N1CC(n2cc(C(=O)N(C)CCOC)nn2)C1 (centres undefined) | 620 |
| CCOC(=O)c1[nH]c(C)c(CCC(=O)N2CCC(C(=O)NCCOC)CC2)c1C | 628 |
| O=C(NCCCN1CCCC1)c1cc2n(n1)CCCN(Cc1ccc(Cl)cc1)C2=O | 640 |

Next, values leading:

| RP-LC retention time [s] | SMILES |
| --- | --- |
| 941 | O=C(CCn1c(=O)oc2ccccc21)NCc1ccc2c(c1)OCO2 |
| 883 | CCS(=O)(=O)c1ccc2c(c1)N(Cc1nc(-c3cccc(OC)c3)no1)C(=O)CO2 |
| 717 | Cc1cc(NC(=O)C2CCCN(c3nnc4ccccn34)C2)ccc1F (centres undefined) |
| 860 | Cc1cc(C)cc(Oc2nccn3c(=O)n(CC(=O)NCc4ccccc4)nc23)c1 |
| 999 | CCc1ccccc1S(=O)(=O)N1CCC(C(=O)NCc2csc(-c3ccccc3)n2)CC1 |
| 953 | CN(CCc1noc(COc2ccccc2)n1)C(=O)Nc1ccccc1C(F)(F)F |
| 876 | Cc1cc(-n2c(C)nc3ccccc3c2=O)ccc1NC(=O)C(C)Oc1ccccc1 (centres undefined) |
| 1030 | Cc1nc2cc(-c3noc(COc4ccccc4)n3)ccc2o1 |
| 914 | COC(=O)c1ccc(-c2nc3cnccn3c2Nc2c(C)cccc2C)cc1 |
| 794 | O=C(CCn1cnc2cc(-c3noc(/C=C/c4ccccc4Cl)n3)ccc21)N1CCOCC1 |
| 941 | O=C(CSc1cc(-c2nc(-c3ccccc3)no2)ccn1)N1CCCC1 |
| 651 | COC(=O)CNC(=O)N1CCN(Cc2ccc(C)cc2)c2ncccc21 |
| 1130 | CC1=NS(=O)(=O)N(Cc2ccccc2)C=C1C(=O)OCc1nc(-c2ccccc2Cl)no1 |
| 611 | c1ccc(-c2nc(-c3ccncc3)no2)c(OC2CCN(Cc3ccc4c(c3)CCO4)C2)c1 (centres undefined) |
| 964 | CCOC(=O)c1ccc(Nc2c(-c3ccc(Cl)cc3)nc3cnccn23)cc1 |
| 899 | O=S(=O)(Cc1ccccc1)N1CC(n2cc(COc3ccc(F)cc3)nn2)C1 |
| 1080 | CCN1C(=O)COc2ccc(-c3csc(NC(=O)c4ccc(Br)cc4)n3)cc21 |

| RP-LC retention time [s] | SMILES |
| --- | --- |
| 700 | COc1ccccc1NC(=O)Nc1c(-c2ccc(C)cc2)nc2ccccn12 |
| 1090 | Cc1cc(C)n(-c2nc(C)c(C(=O)N3CCc4ccccc4C3)s2)n1 |
| 1180 | COc1ccccc1NC(=O)c1cc(C(C)C)n2nccc2n1 |
| 1010 | Cc1ccc(Cl)cc1N1CCN(C(=O)Cn2nc(C(=O)N3CCCC3)c3ccccc32)CC1 |
| 894 | CCc1nn(CC(=O)NCCc2c[nH]c3ccccc23)c(=O)c2cc3sc(C)cc3n12 |
| 654 | O=C(Nc1c(-c2ccccc2)nc2ccccn12)c1ccc([N+](=O)[O-])cc1 |
| 653 | CCCn1c(=O)c(-c2ccc(C(=O)NCCCN3CCCC3)cc2)nc2ccccc21 |
| 796 | COc1ccc(NC(=O)Cn2nc(N3CCCC3)c3ccccc3c2=O)cc1OC |
| 856 | COCc1cc2nn(CC(=O)N3CCc4ccccc43)c(=O)n2c(-c2ccccc2)n1 |
| 630 | CCN1C(=O)C2(CCN(C(=O)c3cn(C)cn3)CC2)c2ccccc21 |
| 738 | CCc1ccc(NC(=O)N2CCN(Cc3nc4ccccc4o3)CC2)cc1 |
| 1250 | O=C(Nc1cccc(Br)c1)C1CCCN(c2ncc(-c3ccccc3)cn2)C1 (centres undefined) |
| 798 | Cc1cccc(NC(=O)COc2cccc3c(=O)n(C)ccc23)c1 |
| 1060 | COc1ccc(-c2nnc(-c3ccccc3Cl)o2)cc1S(=O)(=O)N1CCCCC1 |
| 1050 | O=C(Cn1ccc2ccc(N3CCOCC3)nc21)N1CCC(Cc2ccccc2)CC1 |
| 1050 | Cc1ccccc1Nc1c(-c2ccccc2O)nc2ccc(Br)cn12 |
